Where “and” joins values, the source holds several entries; their conditions need not be identical. Equal values may be shown once.
Columns and labels:
Details in all cases: incubation time: 72 h
[1] = system: BT-474; assay: normalised response (% of control), CellTiter-Glo; higher = more viable cells (100 = DMSO, 0 = benzethonium chloride kill control)
Outline: (§1)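 For each plate, 0.1 % DMSO was set to 100 and a positive kill control to 0. Breast cancer cell lines (20 µl suspension) were seeded into 384-well plates already holding compound at 5 concentrations in 10-fold steps over a 10,000-fold range chosen per compound, and incubated for 72 h. CellTox Green fluorescence at 485/520 nm was read before CellTiter-Glo luminescence, which followed 10 min at room temperature. Each value is the normalised signal at one concentration.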

[2] = system: BT-549; assay: as above
Outline: as §1

[3] = system: CAL-120; assay: as above
Outline: as §1

[4] = system: CAL-148; assay: as above
Outline: as §1

[5] = system: CAL-51; assay: as above
Outline: as §1

[6] = system: CAL-85-1; assay: as above
Outline: as §1

[7] = system: DU-4475; assay: as above
Outline: as §1

[8] = system: HCC1143; assay: as above
Outline: as §1

[9] = system: HCC1599; assay: as above
Outline: as §1

[10] = system: HCC1937; assay: as above
Outline: as §1

[11] = system: HDQ-P1; assay: as above
Outline: as §1

[12] = system: Hs578T; assay: as above
Outline: as §1

[13] = system: MCF-10A; assay: as above
Outline: as §1

[14] = system: MDA-MB-231; assay: as above
Outline: as §1

[15] = system: MDA-MB-436; assay: as above
Outline: as §1

[16] = system: MDA-MB-453; assay: as above
Outline: as §1

[17] = system: MDA-MB-468; assay: as above
Outline: as §1

[18] = system: MFM-223; assay: as above
Outline: as §1

[19] = system: SK-BR-3; assay: as above
Outline: as §1

[20] = system: BT-474; assay: normalised viability (% of control), CellTiter-Blue; higher = more viable cells (100 = DMSO, 0 = benzethonium chloride kill control)
Outline: (§2)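 The reported figure is normalised viability at a single listed concentration of the series. Breast cancer cell lines (20 µl suspension) went onto 384-well plates holding compound in 5 µl medium for 72 h. CellTiter-Blue (2.5 µl, 2 h, 37 °C) was read by fluorescence at 560/590 nm, and each plate was scaled to vehicle at 100 and a positive kill control at 0.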

[21] = system: BT-549; assay: as above
Outline: as §2

[22] = system: CAL-120; assay: as above
Outline: as §2

[23] = system: CAL-148; assay: as above
Outline: as §2

[24] = system: CAL-51; assay: as above
Outline: as §2

[25] = system: CAL-85-1; assay: as above
Outline: as §2

[26] = system: DU-4475; assay: as above
Outline: as §2

[27] = system: HCC1143; assay: as above
Outline: as §2

[28] = system: HCC1599; assay: as above
Outline: as §2

[29] = system: HCC1937; assay: as above
Outline: as §2

[30] = system: HDQ-P1; assay: as above
Outline: as §2

[31] = system: Hs578T; assay: as above
Outline: as §2

[32] = system: MDA-MB-231; assay: as above
Outline: as §2

[33] = system: MDA-MB-436; assay: as above
Outline: as §2

[34] = system: MDA-MB-453; assay: as above
Outline: as §2

[35] = system: MDA-MB-468; assay: as above
Outline: as §2

[36] = system: MFM-223; assay: as above
Outline: as §2

[37] = system: SK-BR-3; assay: as above
Outline: as §2

| Compound | normalised response [1] [%] | normalised response [2] [%] | normalised response [3] [%] | normalised response [4] [%] | normalised response [5] [%] | normalised response [6] [%] | normalised response [7] [%] | normalised response [8] [%] | normalised response [9] [%] | normalised response [10] [%] | normalised response [11] [%] | normalised response [12] [%] | normalised response [13] [%] | normalised response [14] [%] | normalised response [15] [%] | normalised response [16] [%] | normalised response [17] [%] | normalised response [18] [%] | normalised response [19] [%] | normalised viability [20] | normalised viability [21] | normalised viability [22] | normalised viability [23] | normalised viability [24] | normalised viability [25] | normalised viability [26] | normalised viability [27] | normalised viability [28] | normalised viability [29] | normalised viability [30] | normalised viability [31] | normalised viability [32] | normalised viability [33] | normalised viability [34] | normalised viability [35] | normalised viability [36] | normalised viability [37] |
| --- | --- | --- | --- | --- | --- | --- | --- | --- | --- | --- | --- | --- | --- | --- | --- | --- | --- | --- | --- | --- | --- | --- | --- | --- | --- | --- | --- | --- | --- | --- | --- | --- | --- | --- | --- | --- | --- |
| COc1cc(Nc2c(C#N)cnc3cc(OCCCN4CCN(C)CC4)c(OC)cc23)c(Cl)cc1Cl [Bosutinib] (1 nM) | 98.8 | 98.4 | 92.6 | 104 | 99.9 | 96.4 | 101 | 93 | 112 | 97.3 | 99.6 | 95.6 | 99.9 | 93.1 | 96.6 | 101 | 101 | 99.3 | 104 | 116% | 111% | 84.3% | 94.8% | 112% | 88.8% | 105% | 94% | 103% | 80.1% | 108% | 110% | 100% | 113% | 113% | 112% | 93.1% | 106% |
| CCNC(=O)c1noc(-c2cc(C(C)C)c(O)cc2O)c1-c1ccc(CN2CCOCC2)cc1 [NVP-AUY922] (0.1 nM) | 113 | 107 | 107 | 110 | 94.8 | 107 | 102 | 101 | 123 | 104 | 102 | 94.9 | 105 | 106 | 102 | 106 | 105 | 106 | 108 | 109% | 97.2% | 111% | 104% | 99.5% | 104% | 109% | 121% | 103% | 91.2% | 81.1% | 150% | 121% | 99.6% | 114% | 106% | 99.4% | 94.8% |
| Cn1cc(C2=C(c3cn(C4CCN(Cc5ccccn5)CC4)c4ccccc34)C(=O)NC2=O)c2ccccc21 [Enzastaurin] (1 nM) | 96.4 | 102 | 98.3 | 104 | 61.3 | 105 | 101 | 96.6 | 102 | 96.9 | 96.8 | 105 | 106 | 98.5 | 94.2 | 109 | 104 | 103 | 109 | 105% | 113% | 86.2% | 98.9% | 114% | 86.3% | 108% | 92.5% | 104% | 97.2% | 107% | 98.2% | 87.5% | 130% | 96.4% | 99% | 82.1% | 92.5% |
| Cc1cn(-c2cc(NC(=O)c3ccc(C)c(Nc4nccc(-c5cccnc5)n4)c3)cc(C(F)(F)F)c2)cn1 [Nilotinib] (1 nM) | 93.5 | 102 | 98.5 | 93.1 | 98.1 | 105 | 105 | 95.8 | 112 | 96.1 | 96.9 | 100 | 95.4 | 98.8 | 95.7 | 101 | 106 | 96 | 103 | 87.9% and 96% | 107% and 98.7% | 82.1% and 80.6% | 91.4% and 96.9% | 106% and 112% | 82.6% and 95.6% | 110% and 104% | 87.8% and 80.8% | 103% and 87.9% | 95.5% and 94% | 83.1% and 101% | 97.8% and 107% | 83.9% and 95.6% | 111% and 89.4% | 88.4% and 92.2% | 96% and 99.2% | 94% and 90.9% | 93.3% and 92.6% |
| CC(=O)[C@]1(O)Cc2c(O)c3c(c(O)c2[C@@H](O[C@H]2C[C@H](N)[C@H](O)[C@H](C)O2)C1)C(=O)c1ccccc1C3=O [Idarubicin] (0.1 nM) | 106 | 105 | 105 | 110 | 101 | 102 | 103 | 109 | 102 | 100 | 101 | 107 | 103 | 109 | 112 | 101 | 112 | 108 | 105 | 99.8% | 109% | 101% | 102% | 102% | 95.7% | 92.2% | 103% | 96.6% | 92.9% | 115% | 112% | 78% | 112% | 101% | 130% | 97% | 95.3% |
| CO[C@@]12[C@H](COC(N)=O)C3=C(C(=O)C(C)=C(N)C3=O)N1C[C@@H]1N[C@@H]12 [Mitomycin C] (1 nM) | 92.3 | 105 | 94.3 | 95.3 | 82.6 | 99.7 | 95.1 | 96 | 72.6 | 94.6 | 98.8 | 101 | 93.2 | 95.1 | 82.4 | 97.5 | 90.4 | 93.9 | 100 | 86.7% | 87.3% | 93.9% | 109% | 110% | 96.3% | 104% | 98.8% | 94.8% | 106% | 118% | 134% | 87.4% | 96.9% | 102% | 94.3% | 91.1% | 90.3% |
